As a reminder, the inhibition in vivo is the change of the read-out against control, counted positive when it falls.

The values that follow come from ChEMBL document CHEMBL1938263, “Design, synthesis, biological evaluation, and comparative Cox1 and Cox2 docking of p-substituted benzylidenamino phenyl esters of ibuprofenic and mefenamic acids” (Bioorg Med Chem, 2012).

Molecules are shown by their SMILES.

Data set [1] deals with Rattus norvegicus. Description: Antiinflammatory activity in Wistar CF rat assessed as inhibition of carrageenan-induced paw oedema at 100 mg/kg, po administered 1 hr prior to carrageenan-challenge after 4 hrs (reference value: 78.14 +/- 7.1 %). In kind it is functional. In general terms: In the carrageenan paw model, swelling and tenderness develop within hours.
The test system of data set [2] is Mus musculus. Kind of data set: Analgesic activity in mouse assessed as latency time of jumping as nociceptive response at 250 mg/kg, po after 0.5 hrs by hot plate test (reference value: 11.16 +/- 1.66 sec). In kind it is functional. Background: Thermal pain tests record how soon the animal reacts.
Data set [3] concerns Mus musculus. Kind of data set: Analgesic activity in mouse assessed as latency time of jumping as nociceptive response at 250 mg/kg, po after 1 hr by hot plate test (reference value: 14.3 +/- 0.99 sec). In kind it is functional.
For data set [4], the system named is Mus musculus. Description: Analgesic activity in mouse assessed as latency time of jumping as nociceptive response at 250 mg/kg, po after 1.5 hrs by hot plate test (reference value: 16.8 +/- 2.12 sec). The class given is functional.
Data set [5] has as its system Rattus norvegicus. Description: Ulcerogenic activity in fasted Wistar albino rat assessed as ulcer index at 100 mg/kg, po after 5 hrs. The class given is toxicity, organism-based. On the set-up: dose 100 mg/kg, route oral. The note with it: in vivo.
In data set [6] the test system is Rattus norvegicus. Description: Ulcerogenic activity in fasted Wistar albino rat assessed as severity of ulcer at 100 mg/kg, po after 5 hrs. Also on record: dose 100 mg/kg, route oral. The note with it: in vivo. The class given is toxicity, organism-based.
Data set [7] has as its system Mus musculus. Description: Analgesic activity in mouse assessed as latency time of paw licking as nociceptive response at 250 mg/kg, po after 0.5 hrs by hot plate test (reference value: 11.16 +/- 1.66 sec). The class given is functional.
The subject of data set [8] is Mus musculus. Kind of data set: Analgesic activity in mouse assessed as latency time of paw licking as nociceptive response at 250 mg/kg, po after 1 hr by hot plate test (reference value: 14.3 +/- 0.99 sec). In kind it is functional.
Data set [9] deals with Mus musculus. Description: Analgesic activity in mouse assessed as latency time of paw licking as nociceptive response at 250 mg/kg, po after 1.5 hrs by hot plate test (reference value: 16.8 +/- 2.12 sec). In kind it is functional.
Data set [10] deals with Rattus norvegicus. Description: Antiinflammatory activity in Wistar CF rat assessed as inhibition of carrageenan-induced paw oedema at 100 mg/kg, po administered 1 hr prior to carrageenan-challenge after 1 hr (reference value: 55.7 +/- […] %). The class given is functional.
In data set [11] the test system is Rattus norvegicus. Kind of data set: Antiinflammatory activity in Wistar CF rat assessed as inhibition of carrageenan-induced paw oedema at 100 mg/kg, po administered 1 hr prior to carrageenan-challenge after 2 hrs (reference value: 68.6 +/- 7.14 %). The class given is functional.
Data set [12] deals with Rattus norvegicus. Kind of data set: Antiinflammatory activity in Wistar CF rat assessed as inhibition of carrageenan-induced paw oedema at 100 mg/kg, po administered 1 hr prior to carrageenan-challenge after 3 hrs (reference value: 74.63 +/- 7.13 %). In kind it is functional.

As to `COc1ccc(/C=N/c2ccc(OC(=O)C(C)c3ccc(CC(C)C)cc3)cc2)cc1` (stereo not drawn), the inhibition in vivo at 100 mg/kg with Rattus norvegicus [1] was 64.7%; with Rattus norvegicus [10], 54%; in the data set on Rattus norvegicus [11], 56.2%; with Rattus norvegicus [12], 61.2%. Besides, the Time with Mus musculus [2] is on record as 20.18 s; in the data set with Mus musculus [3], 35.14 s; with Mus musculus [4], 28.1 s; with Mus musculus [7], 20.18 s; with Mus musculus [8], 35.14 s; with Mus musculus [9], 28.1 s. The UI with Rattus norvegicus [5] was 0. Further, in the data set on Rattus norvegicus [6], the Activity entry is “Non-toxic”.

On to `CC(C)Cc1ccc(C(C)C(=O)Oc2ccc(/N=C/c3ccc([N+](=O)[O-])cc3)cc2)cc1` (stereo not drawn), for which the inhibition in vivo at 100 mg/kg was determined as 53.8% in the data set on Rattus norvegicus [1], 29.9% in the data set on Rattus norvegicus [10], 44.4% in the data set with Rattus norvegicus [11] and 50.3% in the data set on Rattus norvegicus [12]. Besides, the Time in the data set with Mus musculus [2] is on record as 23.52 s; with Mus musculus [3], 34.62 s; with Mus musculus [4], 24.98 s; in the data set on Mus musculus [7], 23.52 s; in the data set with Mus musculus [8] it was 34.62 s; with Mus musculus [9], 24.98 s. Besides, in the data set on Rattus norvegicus [5], the UI turned out to be 0. For the same molecule, the Activity entry with Rattus norvegicus [6] is recorded as “Non-toxic”.

As to `CC(C)Cc1ccc(C(C)C(=O)Oc2ccc(/N=C/c3ccc(N(C)C)cc3)cc2)cc1` (stereo not drawn), the inhibition in vivo at 100 mg/kg in the data set on Rattus norvegicus [1] amounted to 107%; in the data set with Rattus norvegicus [10], 71.7%; with Rattus norvegicus [11] it was 96.1%; with Rattus norvegicus [12], 104%. Besides, the Time is reported as 22.22 s in the data set on Mus musculus [2]; 32.14 s in the data set on Mus musculus [3]; 23 s in the data set with Mus musculus [4]; 22.22 s with Mus musculus [7]; 32.14 s with Mus musculus [8]; 23 s in the data set on Mus musculus [9]. Moreover, the UI in the data set with Rattus norvegicus [5] was determined as 0. Also, in the data set on Rattus norvegicus [6], the Activity result is given as “Non-toxic”.

As to `CC(C)Cc1ccc(C(C)C(=O)Oc2ccc(/N=C/c3ccc(Br)cc3)cc2)cc1` (stereo not drawn), the inhibition in vivo at 100 mg/kg with Rattus norvegicus [1] was 49.3%; in the data set with Rattus norvegicus [10], 36.5%; in the data set with Rattus norvegicus [11], 40.6%; with Rattus norvegicus [12], 44.7%. The Time in the data set with Mus musculus [2] is recorded as 19.62 s; with Mus musculus [3], 33.44 s; in the data set on Mus musculus [4], 26.12 s; in the data set with Mus musculus [7], 19.62 s; with Mus musculus [8] it was 33.44 s; in the data set with Mus musculus [9] it was 26.12 s. In addition, in the data set with Rattus norvegicus [5], the UI is 0. Besides, the Activity result in the data set with Rattus norvegicus [6] is given as “Non-toxic”.

As to `COc1ccc(/C=N/c2ccc(OC(=O)c3ccccc3Nc3cccc(C)c3C)cc2)cc1`, the inhibition in vivo at 100 mg/kg in the data set with Rattus norvegicus [1] stood at 62.1%; with Rattus norvegicus [10], 35.2%; with Rattus norvegicus [11] it was 49.4%; in the data set with Rattus norvegicus [12], 57%. Moreover, the Time with Mus musculus [2] was 21.68 s; with Mus musculus [3], 25.08 s; with Mus musculus [4], 18.46 s; with Mus musculus [7], 21.68 s; in the data set with Mus musculus [8] it was 25.08 s; in the data set on Mus musculus [9], 18.46 s. In addition, the UI with Rattus norvegicus [5] is 0. Also, the Activity entry with Rattus norvegicus [6] is “Non-toxic”.

For the molecule `Cc1cccc(Nc2ccccc2C(=O)Oc2ccc(/N=C/c3ccc([N+](=O)[O-])cc3)cc2)c1C`, the inhibition in vivo at 100 mg/kg is 52.5% with Rattus norvegicus [1], 36.9% with Rattus norvegicus [10], 41.1% with Rattus norvegicus [11] and 43.8% in the data set with Rattus norvegicus [12]. Besides, the Time with Mus musculus [2] stood at 18.04 s; in the data set on Mus musculus [3] it was 25.98 s; with Mus musculus [4], 20.82 s; in the data set on Mus musculus [7], 18.04 s; in the data set on Mus musculus [8], 25.98 s; in the data set on Mus musculus [9] it was 20.82 s. Further, in the data set on Rattus norvegicus [5], the UI was 0. Besides, the Activity entry in the data set on Rattus norvegicus [6] is given as “Non-toxic”.

`Cc1cccc(Nc2ccccc2C(=O)Oc2ccc(/N=C/c3ccc(N(C)C)cc3)cc2)c1C`: the inhibition in vivo at 100 mg/kg with Rattus norvegicus [1] turned out to be 63.5%; in the data set on Rattus norvegicus [10], 41.6%; in the data set with Rattus norvegicus [11], 45.6%; with Rattus norvegicus [12], 53.4%. Moreover, the Time in the data set on Mus musculus [2] was found to be 23.16 s; with Mus musculus [3], 24.4 s; in the data set with Mus musculus [4], 15.96 s; in the data set on Mus musculus [7], 23.16 s; in the data set with Mus musculus [8], 24.4 s; in the data set on Mus musculus [9], 15.96 s. Also, the UI with Rattus norvegicus [5] came to 0. For the same molecule, the Activity entry in the data set with Rattus norvegicus [6] is listed as “Non-toxic”.

Regarding `Cc1cccc(Nc2ccccc2C(=O)Oc2ccc(/N=C/c3ccc(Br)cc3)cc2)c1C`, the inhibition in vivo at 100 mg/kg in the data set with Rattus norvegicus [1] was 51.7%; with Rattus norvegicus [10], 32%; in the data set on Rattus norvegicus [11], 38.5%; in the data set with Rattus norvegicus [12], 46.5%. Besides, the Time stood at 20.72 s with Mus musculus [2]; 21.22 s in the data set on Mus musculus [3]; 19.38 s in the data set on Mus musculus [4]; 20.72 s in the data set on Mus musculus [7]; 21.22 s in the data set with Mus musculus [8]; 19.38 s in the data set with Mus musculus [9]. Also, the UI in the data set with Rattus norvegicus [5] amounted to 0. The Activity result with Rattus norvegicus [6] is on record as “Non-toxic”.

For `CC(C)Cc1ccc(C(C)C(=O)O)cc1` (racemic) [IBUPROFEN], the inhibition in vivo at 100 mg/kg is 44% in the data set on Rattus norvegicus [1], 30% in the data set on Rattus norvegicus [10], 36.2% with Rattus norvegicus [11] and 41.8% with Rattus norvegicus [12]. For the same molecule, the Time in the data set with Mus musculus [2] is given as 17.84 s; with Mus musculus [3], 16.1 s; in the data set on Mus musculus [4], 19 s; with Mus musculus [7] it was 17.84 s; with Mus musculus [8] it was 16.1 s; in the data set on Mus musculus [9], 19 s. Also, the UI with Rattus norvegicus [5] stood at 4.03. Further, the Activity result with Rattus norvegicus [6] is “Toxic”.
